Patent US9717719B2, “Treatment, prevention, and reversal of alcohol-induced liver disease” (Rhode Island Hospital, priority 2006, dated 2017)
“Also recorded” adds a separate entry of the source.

What was measured:
Assay type in all cases: in vivo, rat
[1] = tested on: Long-Evans male rats fed a 37% ethanol liquid diet; assay: Liver regeneration by BrdU incorporation after 2/3 partial hepatectomy in chronic ethanol fed rats; conditions: for increase in BrdU labeling: 24 hours after 2/3 hepatectomy, compared to ethanol fed animals; for liver regeneration (BrdU incorporation): after 2/3 hepatectomy
Experimental: An isocaloric (sucrose substituted for ethanol) diet was administered to pair fed control animals. After three weeks, both groups of rats were injected with either PPAR-α, γ, or δ agonists or saline as a control. […] The […] were given IP injections twice a week. At 6 weeks, the animals underwent 2/3 partial hepatectomy. The removed liver was used for histology, measurement of lipid peroxidation, DNA damage and insulin/IGF signaling as described below. Following ⅔ hepatectomy, the liver remnants were harvested 18, 24, 30 and 48 hours later to assess the regenerative response. To do this, animals were injected IP with BrdU 2 hours before harvest to measure its incorporation into hepatic nuclei as an index of DNA synthesis.

[2] = tested on: liver mRNA levels of albumin, ASBT, GFAP, KCR, desmin, and collagen; assay: Liver cell profiling by qRT-PCR; conditions: for desmin mRNA / ASBT mRNA / albumin mRNA / GFAP mRNA / collagen mRNA: relative to vehicle
From the text: Adult male (˜200-250 g) Long Evans rats (Harlan Sprague Dawley, Inc., Indianapolis, Ind.) were pair-fed with isocaloric liquid diets (BioServ, Frenchtown, N.J.) containing 0% (control) or 37% ethanol by caloric content (9.2% v/v) for 8 weeks. During the week prior to initiating the experiment, rats were adapted to the ethanol-containing diets by sequentially feeding them for two days each with diets containing 8%, 17%, 24%, and then 37% ethanol. Chow fed control rats were also studied. Rats were monitored daily to ensure equivalent food consumption and maintenance of body weight. During the last 3 weeks of the experiment while being maintained on either the 0% or 37% ethanol-containing liquid diets, rats in both groups were administered twice weekly (Mondays and Thursdays) intra-peritoneal (i.p.) injections of vehicle (saline), a PPAR-α (GW7647; 25 μg/kg), PPAR δ (L-165,041; 2 μg/kg), or PPAR-γ (F-L-Leu; 20 μg/kg) agonist (CalBiochem, Carlsbad, Calif.). At the conclusion of the experiment, rats were anesthetized with vaporized isofluorane (SurgiVet, Inc. Waukesha, Wis.), and liver and blood were harvested for analysis. Liver tissue samples were immersion fixed in Histochoice (Amresco Corp., Solon, Ohio) and embedded in paraffin. Adjacent histological sections were stained with Hematoxylin and Eosin or Gomori's Trichrome and examined under code. In addition, liver tissue samples were snap-frozen in a dry ice methanol bath and then stored at −80° C. for later mRNA and protein studies. Throughout the experiment, rats were housed under humane conditions and kept on a 12-hour light/dark cycle with free access to food. All experiments were performed in accordance with protocols that conform to guidelines established by the National Institutes of Health and were approved by Institutional Animal Care and Use Committee at the Lifespan-Rhode Island Hospital.
Total RNA was extracted from liver tissue using TRIzol® reagent (Invitrogen, Carlsbad, Calif.) according to the manufacturer's protocol. RNA concentrations and purity were determined from the absorbances measured at 260 nm and 280 nm. RNA (2 μg) was reverse transcribed using the AMV First Strand cDNA synthesis kit (Roche Diagnostics Corporation, Indianapolis, Ind.) and random oligodeoxynucleotide primers. Quantitative reverse transcriptase polymerase chain reaction (qRT-PCR) assays were used to measure steady-state levels of specific mRNA transcripts. PCR amplifications were performed in 20 μl reactions containing cDNA generated from 2.5 ng of original RNA template, 300 nM each of gene specific forward and reverse primer (Table 2), and 10 μl of 2× QuantiTect SYBR Green PCR Mix (Qiagen Inc, Valencia, Calif.). The amplified signals were detected continuously with the Mastercycler ep realplex instrument and software (Eppendorf AG, Hamburg, Germany). The amplification protocol used was as follows: initial 15-minutes denaturation and enzyme activation at 95° C., 45 cycles of 95° C.×15 sec, 55°-60° C.×30 sec, and 72° C.×30 sec. Annealing temperatures were optimized using the temperature gradient program provided with the Mastercycler ep realplex software.
In preliminary studies, SYBR Green-labeled PCR products were evaluated by agarose gel electrophoresis, and authenticity was verified by nucleic acid sequencing. Complementary (c) DNAs were cloned into PCR-II vectors (Invitrogen, Carlsbad, Calif.). […] Serial dilutions of recombinant plasmid DNA containing target sequences were used as standards in PCR reactions, and regression lines generated from the Ct values of the standards were used to calculate mRNA abundance. Relative mRNA expression was expressed as the ng ratio of specific mRNA to ribosomal (r) 18S measured in the same samples because 18S is highly abundant and the levels are not modulated with disease state. Statistical comparisons were made using the calculated mRNA/18S ratios. […]

AAH and GAPDH = assay: ELISA of AAH and GAPDH immunoreactivity in liver
From the text: Chow fed control rats were also studied. Rats were monitored daily to ensure equivalent food consumption and maintenance of body weight. […] At the conclusion of the experiment, rats were anesthetized with vaporized isofluorane (SurgiVet, Inc. Waukesha, Wis.), and liver and blood were harvested for analysis. Liver tissue samples were immersion fixed in Histochoice (Amresco Corp., Solon, Ohio) and embedded in paraffin. Adjacent histological sections were stained with Hematoxylin and Eosin or Gomori's Trichrome and examined under code. In addition, liver tissue samples were snap-frozen in a dry ice methanol bath and then stored at −80° C. for later mRNA and protein studies. Throughout the experiment, rats were housed under humane conditions and kept on a 12-hour light/dark cycle with free access to food. All experiments were performed in accordance with protocols that conform to guidelines established by the National Institutes of Health and were approved by Institutional Animal Care and Use Committee at the Lifespan-Rhode Island Hospital.
ELISAs were used to measure immunoreactivity corresponding to AAH, GAPDH and β-actin (negative control). ELISAs were performed in 96-well opaque polystyrene plates (Nalge Nunc International, Rochester, N.Y.). RIPA protein extracts diluted in TBS (40 ng/100 μl) were adsorbed to the bottoms of the wells by overnight incubation at 4° C. After rinsing in TBS, the wells were blocked for 4 hours with 250 μl/well of 2% BSA in TBS. The proteins were then incubated with primary antibody (0.01-0.1 μg/ml) for 1 hour at room temperature. Immunoreactivity was detected with HRP-conjugated secondary antibody (1:10000; Pierce) and the Amplex Red soluble fluorophore (Molecular Probes). […] Binding specificity was determined from parallel negative control incubations with non-relevant antibodies, or with the primary or secondary antibody omitted. The mean levels of specific AAH, GAPDH, and β-actin immunoreactivity were used for inter-group statistical comparisons.

[3] = control livers, relative to vehicle (not statistically significant)
[4] = ethanol-exposed livers, relative to vehicle (statistically significant)

| SMILES | increase in BrdU labeling [1] | desmin mRNA ([2]; control group) | ASBT mRNA ([2]; control livers) | albumin mRNA ([2]; control livers) | KCR mRNA [2, 3] | desmin mRNA ([2]; ethanol-exposed livers) | KCR mRNA [2, 4] | GFAP mRNA ([2]; ethanol-exposed rats) | ASBT mRNA ([2]; ethanol-fed rats) | albumin mRNA ([2]; ethanol-fed rats) | collagen mRNA ([2]; ethanol-fed rats) | AAH expression (ELISA) (AAH and GAPDH; control livers) | GAPDH expression (ELISA) (AAH and GAPDH; ethanol-exposed livers) | liver regeneration (BrdU incorporation) [1] | GFAP mRNA ([2]; control rats) | collagen mRNA ([2]; controls) | GAPDH expression (ELISA) (AAH and GAPDH; control livers) | AAH expression (ELISA) (AAH and GAPDH; ethanol-exposed livers) |
| --- | --- | --- | --- | --- | --- | --- | --- | --- | --- | --- | --- | --- | --- | --- | --- | --- | --- | --- |
| CC(C)C[C@H](NC(=O)OCC1c2ccccc2-c2ccccc21)C(=O)O [PPAR-γ, F-L-Leu] | approximately 20% | significantly reduced | decreased | significantly increased | increased | significantly increased | increased | significantly increased | did not significantly alter | did not significantly alter | significantly reduced | slightly reduced | significantly increased | – | – | – | – | – |
| CC(C)(Sc1ccc(CCN(CCCCC2CCCCC2)C(=O)NC2CCCCC2)cc1)C(=O)O [PPAR-α, GW7647] | approximately 20% | – | – | – | increased | no significant effect | increased | significantly increased | significantly increased; also recorded: normalized | significantly increased; also recorded: normalized | further increased | no significant effect | no significant effect | more modest beneficial effects | significantly increased | increased | no significant effect | no significant effect |
| CCCc1c(OCCCOc2ccc(OCC(=O)O)cc2)ccc(C(C)=O)c1O [PPAR-δ, L-165,041] | – | significantly reduced | decreased | significantly increased | increased | no significant effect | increased | – | did not significantly alter; also recorded: normalized | significantly increased; also recorded: normalized | significantly reduced | slightly reduced | significantly increased | essentially restored liver regeneration to levels seen in normal control animals; also recorded: returns the liver regenerative response to normal levels; also recorded: more modest beneficial effects | – | increased | – | – |
